Here are results for 30 compounds from patent publication US7674801B2 (AstraZeneca AB, priority 2006, dated 2010).

The structures appear in SMILES notation.

This assay addresses S. aureus (SAU) GyrB ATPase (Staphylococcus aureus, UniProt P0A0K8). The experiment in a line: S. aureus GyrB ATPase inhibition, ammonium molybdate/malachite green phosphate detection assay. The following applies: for inhibition at 12.5 µM: read-out: S. aureus (SAU) GyrB ATPase % Inhibition, compound concentration 12.5 μM; for inhibition at 5 µM: compound concentration 5 μM (values marked *); for IC50: 10 compound concentrations, 500 μM ATP. It is filed as biochemical. Here is the method:
Compounds were tested for inhibition of GyrB ATPase activity using an ammonium molybdate/malachite green-based phosphate detection assay (Lanzetta, P. A., L. J. Alvarez, P. S. Reinach, and O. A. Candia, 1979, 100: 95-97). Assays were performed in multiwell plates in 100 μl reactions containing: 50 mM Hepes buffer pH 7.5, 75 mM ammonium acetate, 8.0 mM magnesium chloride, 1.0 mM ethylenediaminetetraacetic acid, 5% glycerol, 2 mM 1,4-Dithio-DL-threitol, 400 nM bovine serum albumin, 5 μg/ml sheared salmon sperm DNA, 1.25 nM E. coli GyrA, 1.25 nM S. aureus GyrB, 500 μM ATP, and compound in dimethylsulfoxide. Reactions were quenched with 150 μl of ammonium molybdate/malachite green detection reagent containing 1.2 mM malachite green hydrochloride, 8.5 mM ammonium molybdate tetrahydrate, and 1 M hydrochloric acid. Plates were read in an absorbance plate reader at 650 nm and percent inhibition values were calculated using dimethylsulfoxide (2%)-containing reactions as 0% inhibition and novobiocin-containing (2 μM) reactions as 100% inhibition controls. Compound potency was based on IC50 measurements determined from reactions performed in the presence of 10 different compound concentrations.

S. aureus (SAU) GyrB ATPase, sequence (P0A0K8 whole entry): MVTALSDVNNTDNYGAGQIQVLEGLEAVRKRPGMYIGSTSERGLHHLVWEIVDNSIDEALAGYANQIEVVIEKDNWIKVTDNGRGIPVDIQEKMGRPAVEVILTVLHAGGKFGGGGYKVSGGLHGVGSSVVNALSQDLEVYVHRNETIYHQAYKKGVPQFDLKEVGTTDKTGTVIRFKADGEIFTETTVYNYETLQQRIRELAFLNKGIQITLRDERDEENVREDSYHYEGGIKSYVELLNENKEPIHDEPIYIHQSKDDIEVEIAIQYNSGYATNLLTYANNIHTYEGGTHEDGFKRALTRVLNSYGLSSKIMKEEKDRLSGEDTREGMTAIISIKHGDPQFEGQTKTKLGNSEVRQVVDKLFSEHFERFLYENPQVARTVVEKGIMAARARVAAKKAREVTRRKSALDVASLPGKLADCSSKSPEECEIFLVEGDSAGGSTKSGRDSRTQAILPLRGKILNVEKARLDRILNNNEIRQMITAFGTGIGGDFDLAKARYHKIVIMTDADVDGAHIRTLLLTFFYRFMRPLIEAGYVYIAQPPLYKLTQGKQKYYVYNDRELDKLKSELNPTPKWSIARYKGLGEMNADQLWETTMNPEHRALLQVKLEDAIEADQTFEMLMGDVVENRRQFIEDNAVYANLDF
S. aureus (SAU) GyrB ATPase, sequence (P0AES4 whole entry, further chain): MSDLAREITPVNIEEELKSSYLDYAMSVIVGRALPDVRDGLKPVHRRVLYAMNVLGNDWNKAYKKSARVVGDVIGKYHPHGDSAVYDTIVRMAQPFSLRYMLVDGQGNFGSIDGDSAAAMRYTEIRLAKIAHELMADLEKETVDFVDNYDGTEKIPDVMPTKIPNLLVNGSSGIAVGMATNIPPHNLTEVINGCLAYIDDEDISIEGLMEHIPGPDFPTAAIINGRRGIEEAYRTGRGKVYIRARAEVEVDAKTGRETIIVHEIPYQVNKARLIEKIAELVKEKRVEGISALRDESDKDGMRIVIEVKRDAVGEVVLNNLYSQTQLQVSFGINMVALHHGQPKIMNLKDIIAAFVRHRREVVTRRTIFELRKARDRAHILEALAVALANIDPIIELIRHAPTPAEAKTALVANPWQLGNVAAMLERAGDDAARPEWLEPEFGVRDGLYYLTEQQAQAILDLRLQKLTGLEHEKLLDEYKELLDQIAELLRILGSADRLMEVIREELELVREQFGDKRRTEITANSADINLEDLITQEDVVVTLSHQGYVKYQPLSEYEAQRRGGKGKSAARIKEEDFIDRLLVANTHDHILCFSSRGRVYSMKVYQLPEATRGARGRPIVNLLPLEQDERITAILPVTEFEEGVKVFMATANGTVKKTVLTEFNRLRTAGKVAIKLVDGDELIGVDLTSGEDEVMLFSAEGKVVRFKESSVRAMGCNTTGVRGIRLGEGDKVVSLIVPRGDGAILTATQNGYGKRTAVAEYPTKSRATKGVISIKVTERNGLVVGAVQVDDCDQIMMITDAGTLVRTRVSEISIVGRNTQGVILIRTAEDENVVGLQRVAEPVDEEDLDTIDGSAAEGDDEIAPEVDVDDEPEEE

In the case of `CCNC(=O)Nc1ccc(-c2ncc(C(=O)OC)s2)cn1` [Example 1, Methyl 2-(6-{[(ethylamino)carbonyl]amino}pyridin-3-yl)-1,3-thiazole-5-carboxylate], the inhibition at 12.5 µM is 3.02%.

As to `CCNC(=O)Nc1ccc(-c2nc(C(=O)OCC)cs2)cn1` [Example 2, Ethyl 2-(6-{[(ethylamino)carbonyl]amino}pyridin-3-yl)-1,3-thiazole-4-carboxylate], the inhibition at 12.5 µM was found to be 99.1%.

As for `CCNC(=O)Nc1ccc(-c2cncc(C(=O)OCC)c2)cn1` [Example 3, Ethyl 6′-{[(ethylamino)carbonyl]amino}-3,3′-bipyridine-5-carboxylate], the inhibition at 12.5 µM came out at 55%.

Turning to `CCNC(=O)Nc1ccc(-c2nc3cccc(C(=O)OCC)c3s2)cn1` [Example 4, Ethyl 2-(6-{[(ethylamino)carbonyl]amino}pyridin-3-yl)-1,3-benzothiazole-7-carboxylate], the inhibition at 12.5 µM was 84%.

For `CCNC(=O)Nc1ccc(-c2ccc(C(=O)OC)cn2)cn1` [Example 5, Methyl 6′-{[(ethylamino)carbonyl]amino}-2,3′-bipyridine-5-carboxylate], the inhibition at 12.5 µM was 63.7%.

`CCNC(=O)Nc1ccc(-c2cccc(C(=O)OC)c2)cn1` [Example 6, Methyl 3-(6-{[(ethylamino)carbonyl]amino}pyridin-3-yl)benzoate]: the inhibition at 12.5 µM amounted to 99.7%.

With `CCNC(=O)Nc1ccc(-c2ccc(C(=O)OC)cc2)cn1` [Example 7, Methyl 4-(6-{[(ethylamino)carbonyl]amino}pyridin-3-yl)benzoate], the inhibition at 12.5 µM turned out to be 97.4%.

With `CCNC(=O)Nc1ccc(-c2nc(C(=O)NC)c(C(=O)OC(C)C)s2)cn1` [Example 8, Isopropyl 2-(6-{[(ethylamino)carbonyl]amino}pyridin-3-yl)-4-[(methylamino)carbonyl]-1,3-thiazole-5-carboxylate], the inhibition at 12.5 µM is 81.5%.

For the compound `CCNC(=O)Nc1ccc(-c2nc(C(=O)NC3CC3)c(C(=O)OCC)s2)cn1` [Example 9, Ethyl 4-[(cyclopropylamino)carbonyl]-2-(6-{[(ethylamino)carbonyl]amino}pyridin-3-yl)-1,3-thiazole-5-carboxylate], the inhibition at 12.5 µM is 93.5%.

On to `CCCCNC(=O)c1nc(-c2ccc(NC(=O)NCC)nc2)sc1C(=O)OCC` [Example 10, Ethyl 4-[(butylamino)carbonyl]-2-(6-{[(ethylamino)carbonyl]amino}pyridin-3-yl)-1,3-thiazole-5-carboxylate], for which the inhibition at 12.5 µM is 92.6%.

For `CCNC(=O)Nc1ccc(-c2ccc3nc(C(=O)OC)cn3c2)cn1` [Example 12, Methyl 6-(6-{[(ethylamino)carbonyl]amino}pyridin-3-yl)imidazo[1,2-a]pyridine-2-carboxylate], the inhibition at 12.5 µM worked out at 92.6%.

For `CCNC(=O)Nc1ncc(-c2cccc(C(=O)OC)c2)cn1` [Example 13, Methyl 3-(2-{[(ethylamino)carbonyl]amino}pyrimidin-5-yl)benzoate], the inhibition at 12.5 µM amounted to 99%.

As for `CCNC(=O)Nc1ncc(-c2ncc(C(=O)OC)s2)cn1` [Example 14, Methyl 2-(2-{[(ethylamino)carbonyl]amino}pyrimidin-5-yl)-1,3-thiazole-5-carboxylate], the inhibition at 5 µM came to 99.5%.

Take `CCNC(=O)Nc1cccc(-c2cccc(C(=O)OCC)c2)n1` [Example 15, Ethyl 3-(6-{[(ethylamino)carbonyl]amino}pyridin-2-yl)benzoate]: the inhibition at 12.5 µM amounted to 97.9%.

Turning to `CCNC(=O)Nc1cccc(-c2ccc(C(=O)OCC)cc2)n1` [Example 16, Ethyl 4-(6-{[(ethylamino)carbonyl]amino}pyridin-2-yl)benzoate], the inhibition at 5 µM turned out to be 1.28%.

On to `CCNC(=O)Nc1ccc(-c2ncc(C(=O)O)s2)cn1` [Example 17, 2-(6-{[(ethylamino)carbonyl]amino}pyridin-3-yl)-1,3-thiazole-5-carboxylic acid], for which the IC50 came to 266 nM and the inhibition at 12.5 µM worked out at 99.1%.

For `CCNC(=O)Nc1ccc(-c2nc(C(=O)O)cs2)cn1` [Example 18, 2-(6-{[(Ethylamino)carbonyl]amino}pyridin-3-yl)-1,3-thiazole-4-carboxylic acid], the inhibition at 12.5 µM came to 101%.

Regarding `CCNC(=O)Nc1ccc(-c2cncc(C(=O)O)c2)cn1` [Example 19, 6′-{[(Ethylamino)carbonyl]amino}-3,3′-bipyridine-5-carboxylic acid], the half-maximal inhibitory concentration (IC50) is 846 nM and the inhibition at 12.5 µM came out at 95.1%.

For the compound `CCNC(=O)Nc1ccc(-c2nc3cccc(C(=O)O)c3s2)cn1` [Example 20, 2-(6-{[(Ethylamino)carbonyl]amino}pyridin-3-yl)-1,3-benzothiazole-7-carboxylic acid], the inhibition at 12.5 µM was 98.4%.

Regarding `CCNC(=O)Nc1ccc(-c2ccc(C(=O)O)cn2)cn1` [Example 21, 6′-{[(Ethylamino)carbonyl]amino}-2,3′-bipyridine-5-carboxylic acid], the inhibition at 12.5 µM was 77.1%.

Take `CCNC(=O)Nc1ccc(-c2cccc(C(=O)O)c2)cn1` [Example 22, 3-(6-{[(Ethylamino)carbonyl]amino}pyridin-3-yl)benzoic acid]: the inhibition at 12.5 µM is 99.7%.

Regarding `CCNC(=O)Nc1ccc(-c2ccc(C(=O)O)cc2)cn1` [Example 23, 4-(6-{[(Ethylamino)carbonyl]amino}pyridin-3-yl)benzoic acid], the inhibition at 12.5 µM was 92.5%.

For the compound `CCNC(=O)Nc1ccc(-c2nc(C(=O)NC)c(C(=O)O)s2)cn1` [Example 24, 2-(6-{[(Ethylamino)carbonyl]amino}pyridin-3-yl)-4-[(methylamino)carbonyl]-1,3-thiazole-5-carboxylic acid], the inhibition at 12.5 µM was found to be 99.1%.

For `CCNC(=O)Nc1ccc(-c2nc(C(=O)NC3CC3)c(C(=O)O)s2)cn1` [Example 25, 4-[(Cyclopropylamino)carbonyl]-2-(6-{[(ethylamino)carbonyl]amino}pyridin-3-yl)-1,3-thiazole-5-carboxylic acid], the inhibition at 12.5 µM turned out to be 99.5%.

In the case of `CCNC(=O)Nc1ccc(-c2nc(C(C)=O)c(C(=O)O)s2)cn1` [Example 27, 4-Acetyl-2-(6-{[(ethylamino)carbonyl]amino}pyridin-3-yl)-1,3-thiazole-5-carboxylic acid], the inhibition at 12.5 µM was 99.1%.

Regarding `CCNC(=O)Nc1ccc(-c2ccc3nc(C(=O)O)cn3c2)cn1` [Example 28, 6-(6-{[(Ethylamino)carbonyl]amino}pyridin-3-yl)imidazo[1,2-a]pyridine-2-carboxylic acid], the inhibition at 12.5 µM came to 96.8%.

With `CCNC(=O)Nc1ncc(-c2cccc(C(=O)O)c2)cn1` [Example 29, 3-(2-{[(Ethylamino)carbonyl]amino}pyrimidin-5-yl)benzoic acid], the inhibition at 12.5 µM amounted to 13.6%.

As for `CCNC(=O)Nc1ncc(-c2ncc(C(=O)O)s2)cn1` [Example 30, 2-(2-{[(Ethylamino)carbonyl]amino}pyrimidin-5-yl)-1,3-thiazole-5-carboxylic acid], the inhibition at 12.5 µM came to 62.9%.

Take `CCNC(=O)Nc1cccc(-c2cccc(C(=O)O)c2)n1` [Example 31, 3-(6-{[(Ethylamino)carbonyl]amino}pyridin-2-yl)benzoic acid]: the inhibition at 12.5 µM was found to be 100%.

For `CCNC(=O)Nc1cccc(-c2ccc(C(=O)O)cc2)n1` [Example 32, 4-(6-{[(Ethylamino)carbonyl]amino}pyridin-2-yl)benzoic acid], the inhibition at 12.5 µM was 2.66%.

Usually IC50 stands for the concentration needed to halve the response being measured.
